Results published in patent US20040137052A1, “Acid-containing preparations” (priority 2001, published 2004).

Legend:
[1] = Solubility of compound A in Britton-Robinson buffer at each pH; format: physicochemical; conditions: 20° C., 30 minutes
Protocol: Regarding a compound A, the solubility was measured by measuring the solubility in the Britton-Robinson buffer at 20° C. at each pH of pHs 1, 3, 5, 7, 9, 11 and 13. The compound A was added to a solution at each pH, the mixture was vigorously stirred for 30 seconds every 5 minutes, and an amount of a physiologically active substance dissolved at a time point of 30 minutes was measured (according to a method of confirming the solubility described in Japanese Pharmacopoeia, general rules).

CCOC(=O)CNC(=O)c1cn2nc(NCCCN3CCC(OC(c4ccccc4)c4ccccc4)CC3)ccc2n1 (hydrate or solvate) [Reference Example 7, N-[6-[3-[4-(diphenylmethoxy)piperidino]propylamino]imidazo[1,2-b]pyridazine-2-carbonyl]glycine ethyl ester]
melting point: 172 to 174 °C

CC(C)(C(=O)O)c1cn2nc(NCCCN3CCC(OC(c4ccccc4)c4ccccc4)CC3)ccc2n1.O.O (hydrate or solvate) [compound A, 2-[6-[3-[4-(diphenylmethoxy)piperidino]propylamino]imidazo[1,2-b]pyridazin-2-yl]-2-methylpropionic acid dihydrate]
melting point: 203 to 205 °C

CC(C)(C(=O)O)c1cn2nc(NCCCN3CCC(OC(c4ccccc4)c4ccccc4)CC3)ccc2n1.O.O [compound A, 2-[6-[3-[4-(diphenylmethoxy)piperidino]propylamino]imidazo[1,2-b]pyridazin-2-yl]-2-methylpropionic acid dihydrate]
solubility on an acidic side or an alkaline side ([1]; acidic or alkaline pH): enhanced solubility | solubility at neutral pH ([1]; neutral pH): hardly dissolved

CC(C)(C(=O)O)c1cn2nc(NCCCN3CCC(OC(c4ccccc4)c4ccccc4)CC3)ccc2n1 [Reference Example 4, 2-[6-[3-[4-(diphenylmethoxy)piperidino]propylamino]imidazo[1,2-b]pyridazin-2-yl]-2-methylpropionic acid]
melting point: 205 to 206 °C
